In ChEMBL document CHEMBL3044647, “Tests for Evaluating the Side Effects of Chlorothalonil (TPN) and Spinosad on the Parasitic Wasp (Aphidius colemani)” (J Pestic Sci, 2005):

Legend:
[1] = Toxicity against Aphidius colemani in cucumber leaf assessed as mortality at 10 mg/l treated as spraying after 24 hr relative to control; format: organism-based; details: in vivo, other: spraying
[2] = Toxicity against Aphidius colemani in cucumber leaf assessed as mortality at 20 mg/l treated as spraying after 48 hr relative to control; format: organism-based; details: in vivo
[3] = Toxicity against Aphidius colemani in cucumber leaf assessed as mortality at 20 mg/l treated as spraying after 24 hr relative to control; format: organism-based; details: in vivo, other: spraying
[4] = Toxicity against Aphidius colemani in cucumber leaf assessed as mortality at 100 mg/l treated as spraying after 48 hr relative to control; format: organism-based; details: in vivo
[5] = Toxicity against Aphidius colemani in cucumber leaf assessed as mortality at 100 mg/l treated as spraying after 24 hr relative to control; format: organism-based; details: in vivo, other: spraying
[6] = Toxicity against Aphidius colemani in kidney bean leaf assessed as mortality at 1 mg/l treated as spraying after 48 hr relative to control; format: organism-based; details: in vivo
[7] = Toxicity against Aphidius colemani in kidney bean leaf assessed as mortality at 1 mg/l treated as spraying after 24 hr relative to control; format: organism-based; details: in vivo
[8] = Toxicity against Aphidius colemani in kidney bean leaf assessed as mortality at 5 mg/l treated as spraying after 48 hr relative to control; format: organism-based; details: in vivo
[9] = Toxicity against Aphidius colemani in kidney bean leaf assessed as mortality at 5 mg/l treated as spraying after 24 hr relative to control; format: organism-based; details: in vivo
[10] = Toxicity against Aphidius colemani in kidney bean leaf assessed as mortality at 100 mg/l treated as spraying after 48 hr relative to control; format: organism-based; details: in vivo, other: spraying
[11] = Toxicity against Aphidius colemani in kidney bean leaf assessed as mortality at 100 mg/l treated as spraying after 24 hr relative to control; format: organism-based; details: in vivo
[12] = Toxicity against Aphidius colemani in kidney bean leaf assessed as mortality at 0.8 mg/l treated as spraying after 48 hr relative to control; format: organism-based; details: in vivo, other: spraying
[13] = Toxicity against Aphidius colemani in kidney bean leaf assessed as mortality at 0.8 mg/l treated as spraying after 24 hr relative to control; format: organism-based; details: in vivo
[14] = Toxicity against Aphidius colemani in kidney bean leaf assessed as mortality at 8.3 mg/l treated as spraying after 24 hr relative to control; format: organism-based; details: in vivo
[15] = Toxicity against Aphidius colemani in kidney bean leaf assessed as mortality at 83.3 mg/l treated as spraying after 48 hr relative to control; format: organism-based; details: in vivo, other: spraying
[16] = Toxicity against Aphidius colemani in kidney bean leaf assessed as mortality at 83.3 mg/l treated as spraying after 24 hr relative to control; format: organism-based; details: in vivo, other: spraying
[17] = Toxicity against Aphidius colemani in strawberry leaf assessed as mortality at 1 mg/l treated as spraying after 48 hr relative to control; format: organism-based; details: in vivo, other: spraying
[18] = Toxicity against Aphidius colemani in strawberry leaf assessed as mortality at 1 mg/l treated as spraying after 24 hr relative to control; format: organism-based; details: in vivo, other: spraying
[19] = Toxicity against Aphidius colemani in strawberry leaf assessed as mortality at 5 mg/l treated as spraying after 48 hr relative to control; format: organism-based; details: in vivo
[20] = Toxicity against Aphidius colemani in strawberry leaf assessed as mortality at 5 mg/l treated as spraying after 24 hr relative to control; format: organism-based; details: in vivo, other: spraying
[21] = Toxicity against Aphidius colemani in strawberry leaf assessed as mortality at 100 mg/l treated as spraying after 48 hr relative to control; format: organism-based; details: in vivo
[22] = Toxicity against Aphidius colemani in strawberry leaf assessed as mortality at 100 mg/l treated as spraying after 24 hr relative to control; format: organism-based; details: in vivo
Leaf [23] = assay: Drug level in Cucumis sativus (cucumber) leaf assessed as deposition in leaf at 5 mg/l; format: ADME
Leaf [24] = assay: Drug level in Cucumis sativus (cucumber) leaf assessed as deposition in leaf at 10 mg/l; format: ADME
Leaf [25] = assay: Drug level in Cucumis sativus (cucumber) leaf assessed as deposition in leaf at 20 mg/l; format: ADME
Leaf [26] = assay: Drug level in Cucumis sativus (cucumber) leaf assessed as deposition in leaf at 100 mg/l; format: ADME
Leaf [27] = assay: Drug level in Phaseolus vulgaris (kidney bean) leaf assessed as deposition in leaf at 1 mg/l; format: ADME
Leaf [28] = assay: Drug level in Phaseolus vulgaris (kidney bean) leaf assessed as deposition in leaf at 5 mg/l; format: ADME
Leaf [29] = assay: Drug level in Phaseolus vulgaris (kidney bean) leaf assessed as deposition in leaf at 100 mg/l; format: ADME
Leaf [30] = assay: Drug level in Phaseolus vulgaris (kidney bean) leaf assessed as deposition in leaf at 0.8 mg/l; format: ADME
Leaf [31] = assay: Drug level in Phaseolus vulgaris (kidney bean) leaf assessed as deposition in leaf at 8.3 mg/l; format: ADME
[32] = Residual toxicity against Aphidius colemani in strawberry leaf assessed as mortality at 50 mg/l leaves collected after 40 days of application measured after 24 hr relative to control; format: organism-based; details: in vivo
[33] = Residual toxicity against Aphidius colemani in strawberry leaf assessed as mortality at 50 mg/l leaves collected after 30 days of application measured after 24 hr relative to control; format: organism-based; details: in vivo
[34] = Residual toxicity against Aphidius colemani in strawberry leaf assessed as mortality at 50 mg/l leaves collected after 20 days of application measured after 24 hr relative to control; format: organism-based; details: in vivo
[35] = Residual toxicity against Aphidius colemani in strawberry leaf assessed as mortality at 50 mg/l leaves collected after 10 days of application measured after 24 hr relative to control; format: organism-based; details: in vivo
[36] = Residual toxicity against Aphidius colemani in strawberry leaf assessed as mortality at 50 mg/l leaves collected after 5 days of application measured after 24 hr relative to control; format: organism-based; details: in vivo
[37] = Toxicity against Aphidius colemani in cucumber leaf assessed as mortality at 5 mg/l treated as spraying after 48 hr relative to control; format: organism-based; details: in vivo
[38] = Toxicity against Aphidius colemani in cucumber leaf assessed as mortality at 5 mg/l treated as spraying after 24 hr relative to control; format: organism-based; details: in vivo, other: spraying
[39] = Toxicity against Aphidius colemani in cucumber leaf assessed as mortality at 10 mg/l treated as spraying after 48 hr relative to control; format: organism-based; details: in vivo, other: spraying
[40] = Drug level in Fragaria x ananassa (strawberry) leaf at 50 mg/l leaves after 40 days; format: ADME; details: read-out: Drug uptake
[41] = Drug level in Fragaria x ananassa (strawberry) leaf at 50 mg/l leaves after 30 days; format: ADME; details: read-out: Drug uptake
[42] = Drug level in Fragaria x ananassa (strawberry) leaf at 50 mg/l leaves after 10 days; format: ADME; details: read-out: Drug uptake
[43] = Drug level in Fragaria x ananassa (strawberry) leaf at 50 mg/l leaves after 20 days; format: ADME; details: read-out: Drug uptake
[44] = Drug level in Fragaria x ananassa (strawberry) leaf at 50 mg/l leaves after 5 days; format: ADME; details: read-out: Drug uptake
[45] = Residual toxicity against Aphidius colemani in strawberry leaf assessed as mortality at 50 mg/l leaves collected after 40 days of application measured after 48 hr relative to control; format: organism-based; details: in vivo
[46] = Residual toxicity against Aphidius colemani in strawberry leaf assessed as mortality at 50 mg/l leaves collected after 30 days of application measured after 48 hr relative to control; format: organism-based; details: in vivo
[47] = Residual toxicity against Aphidius colemani in strawberry leaf assessed as mortality at 50 mg/l leaves collected after 20 days of application measured after 48 hr relative to control; format: organism-based; details: in vivo
[48] = Residual toxicity against Aphidius colemani in strawberry leaf assessed as mortality at 50 mg/l leaves collected after 10 days of application measured after 48 hr relative to control; format: organism-based; details: in vivo
[49] = Residual toxicity against Aphidius colemani in strawberry leaf assessed as mortality at 50 mg/l leaves collected after 5 days of application measured after 48 hr relative to control; format: organism-based; details: in vivo
Leaf [50] = assay: Drug level in Phaseolus vulgaris (kidney bean) leaf assessed as deposition in leaf at 83.3 mg/l; format: ADME
[51] = Toxicity against Aphidius colemani in kidney bean leaf assessed as mortality at 8.3 mg/l treated as spraying after 48 hr relative to control; format: organism-based; details: in vivo
Leaf [52] = assay: Drug level in Fragaria x ananassa (strawberry) leaf assessed as deposition in leaf at 1 mg/l; format: ADME
Leaf [53] = assay: Drug level in Fragaria x ananassa (strawberry) leaf assessed as deposition in leaf at 5 mg/l; format: ADME
Leaf [54] = assay: Drug level in Fragaria x ananassa (strawberry) leaf assessed as deposition in leaf at 100 mg/l; format: ADME
[55] = Toxicity against Aphidius colemani assessed as mortality at 100 mg/l, po after 24 hr relative to control; format: organism-based; details: in vivo
[56] = Toxicity against Aphidius colemani assessed as mortality at 100 mg/l, po after 24 hr; format: organism-based; details: in vivo
[57] = Contact toxicity against Aphidius colemani assessed as mortality at 100 mg/l after 24 hr relative to control; format: organism-based; details: in vivo, other: contact
[58] = Contact toxicity against Aphidius colemani assessed as mortality at 100 mg/l after 24 hr; format: organism-based; details: in vivo, other: contact
Aphidius colemani [59] = assay: Drug uptake in Aphidius colemani at 100 mg/l treated as spraying; format: ADME, organism-based; details: in vivo, topical_or_ocular
[60] = Toxicity against Aphidius colemani assessed as mortality at 400 mg/l, po after 24 hr relative to control; format: organism-based; details: in vivo
[61] = Toxicity against Aphidius colemani assessed as mortality at 400 mg/l, po after 24 hr; format: organism-based; details: in vivo
[62] = Contact toxicity against Aphidius colemani assessed as mortality at 400 mg/l after 24 hr relative to control; format: organism-based; details: in vivo, other: contact
[63] = Contact toxicity against Aphidius colemani assessed as mortality at 400 mg/l after 24 hr; format: organism-based; details: in vivo, other: contact
Aphidius colemani [64] = assay: Drug uptake in Aphidius colemani at 400 mg/l treated as spraying; format: ADME, organism-based; details: in vivo, topical_or_ocular
Aphidius colemani [65] = assay: Drug uptake in Aphidius colemani at 400 mg/l treated as dipping; format: ADME, organism-based; details: in vivo, topical_or_ocular

## CC[C@H]1CCC[C@H](O[C@H]2CC[C@H](N(C)C)[C@@H](C)O2)[C@@H](C)C(=O)C2=C[C@@H]3[C@@H](C=C(C)[C@@H]4C[C@@H](O[C@@H]5O[C@@H](C)[C@H](OC)[C@@H](OC)[C@H]5OC)C[C@@H]34)[C@@H]2CC(=O)O1.CC[C@H]1CCC[C@H](O[C@H]2CC[C@H](N(C)C)[C@@H](C)O2)[C@@H](C)C(=O)C2=C[C@@H]3[C@@H](C=C[C@@H]4C[C@@H](O[C@@H]5O[C@@H](C)[C@H](OC)[C@@H](OC)[C@H]5OC)C[C@@H]34)[C@@H]2CC(=O)O1
[1]
  mortality at 24 h: 3.3%
[2]
  mortality at 48 h: 86.7%
[3]
  mortality at 24 h: 48.3%
[4]
  mortality at 48 h: 100%
[5]
  mortality at 24 h: 100%
[6]
  mortality at 48 h: 21.4%
[7]
  mortality at 24 h: 0%
[8]
  mortality at 48 h: 0%
[9]
  mortality at 24 h: 4%
[10]
  mortality at 48 h: 97.8%
[11]
  mortality at 24 h: 90%
[12]
  mortality at 48 h: 8.9%
[13]
  mortality at 24 h: 0%
[14]
  mortality at 24 h: 90%
[15]
  mortality at 48 h: 100%
[16]
  mortality at 24 h: 96.9%
[17]
  mortality at 48 h: 0%
[18]
  mortality at 24 h: 0%
[19]
  mortality at 48 h: 17.2%
[20]
  mortality at 24 h: 3.3%
[21]
  mortality at 48 h: 100%
[22]
  mortality at 24 h: 95.8%
Leaf [23]
  Drug uptake: 0.022%
Leaf [24]
  Drug uptake: 0.044%
Leaf [25]
  Drug uptake: 0.177%
Leaf [26]
  Drug uptake: 0.93%
Leaf [27]
  Drug uptake: 0.004%
Leaf [28]
  Drug uptake: 0.025%
Leaf [29]
  Drug uptake: 2.37%
Leaf [30]
  Drug uptake: 0.023%
Leaf [31]
  Drug uptake: 0.219%
[32]
  mortality at 24 h: 4%
[33]
  mortality at 24 h: 4.3%
[34]
  mortality at 24 h: 27.7%
[35]
  mortality at 24 h: 62%
[36]
  mortality at 24 h: 74.4%
[37]
  mortality at 48 h: 0%
[38]
  mortality at 24 h: 3.3%
[39]
  mortality at 48 h: 10%
[40]
  concentration at 960 h: 9200 ng/g
[41]
  concentration at 720 h: 11400 ng/g
[42]
  concentration at 240 h: 28800 ng/g
[43]
  concentration at 480 h: 23000 ng/g
[44]
  concentration at 120 h: 38800 ng/g
[45]
  mortality at 48 h: 0%
[46]
  mortality at 48 h: 0%
[47]
  mortality at 48 h: 55.9%
[48]
  mortality at 48 h: 93.6%
[49]
  mortality at 48 h: 95.1%
Leaf [50]
  Drug uptake: 2.108%
[51]
  mortality at 48 h: 98.2%
Leaf [52]
  Drug uptake: 0.003%
Leaf [53]
  Drug uptake: 0.022%
Leaf [54]
  Drug uptake: 1.145%
[55]
  mortality at 24 h: 91.3%
[56]
  mortality at 24 h: 93.3%
[57]
  mortality at 24 h: 100%
[58]
  mortality at 24 h: 100%
Aphidius colemani [59]
  Drug uptake: 3.63 ng

## N#Cc1c(Cl)c(Cl)c(Cl)c(C#N)c1Cl [CHLOROTHALONIL]
[60]
  mortality at 24 h: 0%
[61]
  mortality at 24 h: 0%
[62]
  mortality at 24 h: 8.7%
[63]
  mortality at 24 h: 30%
Aphidius colemani [64]
  Drug uptake: 25.1 ng
Aphidius colemani [65]
  Drug uptake: 5.5 ng
